Values after ≈ are worked out from the molar mass of the structure shown.
Experiments:
A. baum. CIP-107292 = experiment: MIC assay; assay type: cell-based; conditions: Acinetobacter baumannii, CIP107292, read-out: MIC A. baum. CIP-107292
Method: (§1) All cystobactamids were evaluated in MIC-assays on a panel of representative ESKAPE strains with focus on A. baumannii (Tables 1 and 2). Compared to our previous work[10],[17],[18], we specifically included more challenging test strains with known resistances against gyrase inhibitors.
(§2) 2.1 Materials and Methods
(§3) Strains were cultivated according to standard procedures. Bacterial cryo-cultures were
(§4) resuspended into fresh MHBII (cation adjusted) medium. The resuspension
(§5) assay plate (Corning, #3788).
(§6) in parallel as a positive control. […]

P. ae. PA14 = experiment: MIC assay; assay type: cell-based; conditions: Pseudomonas aeruginosa, PA14, read-out: MIC P. ae. PA14
Method: as §1, §2, §3, §4, §5, §6

P. ae. PA14ΔmexAB = experiment: MIC assay; assay type: cell-based; conditions: Pseudomonas aeruginosa, read-out: MIC P. ae. PA14ΔmexAB
Method: as §1, §2, §3, §4, §5, §6

K. pneum. R-1525 = experiment: MIC assay; assay type: cell-based; conditions: Klebsiella pneumoniae, read-out: MIC K. pneum. R-1525
Method: as §1, §2, §3, §4, §5, §6

E. coli ATCC-25922 = experiment: MIC assay; assay type: cell-based; conditions: Escherichia coli, ATCC25922, read-out: MIC E. coli ATCC-25922
Method: as §1, §2, §3, §4, §5, §6

K. pneum. CIP-104298 = experiment: MIC assay; assay type: cell-based; conditions: Klebsiella pneumoniae, CIP104298, read-out: MIC K. pneum. CIP-104298
Method: as §1, §2, §3, §4, §5, §6

A. baum. DSM-30008 = experiment: MIC assay; assay type: cell-based; conditions: Acinetobacter baumannii, DSM30008, read-out: MIC A. baum. DSM-30008
Method: as §1, §2, §3, §4, §5, §6

A. baum. ATCC BAA-1710 = experiment: MIC assay; assay type: cell-based; conditions: Acinetobacter baumannii, ATCCBAA1710, read-out: MIC A. baum. ATCC BAA-1710
Method: as §1, §2, §3, §4, §5, §6

A. baum. R835 = experiment: MIC assay; assay type: cell-based; conditions: Acinetobacter baumannii, read-out: MIC A. baum. R835
Method: as §1, §2, §3, §4, §5, §6

E. cloacae ATCC BAA-2468 = experiment: MIC assay; assay type: cell-based; conditions: Enterobacter cloacae, ATCCBAA2468, read-out: MIC E. cloacae ATCC BAA-2468
Method: as §1, §2, §3, §4, §5, §6

E. coli LM705 = experiment: MIC assay; assay type: cell-based; conditions: Escherichia coli, LM705, read-out: MIC E. coli LM705
Method: as §1, §2, §3, §4, §5, §6

A. baum. CIP-105742 = experiment: MIC assay; assay type: cell-based; conditions: Acinetobacter baumannii, CIP105742, read-out: MIC A. baum. CIP-105742
Method: as §1, §2, §3, §4, §5, §6

S. aur. ATCC-29213 = experiment: MIC assay; assay type: cell-based; conditions: Staphylococcus aureus, ATCC29213, read-out: MIC S. aur. ATCC-29213
Method: as §1, §2, §3, §4, §5, §6

[1] = test system: S. pneum. DSM-11865 (PRSP); experiment: MIC assay; assay type: cell-based; conditions: Streptococcus pneumoniae, read-out: MIC S. pneum. DSM-11865 (PRSP)
Method: as §1, §2, §3, §4, §5, §6

K. pneum. KP10581 = experiment: MIC assay; assay type: cell-based; conditions: Klebsiella pneumoniae, read-out: MIC K. pneum. KP10581
Method: as §1, §2, §3, §4, §5, §6

E. faec. DSM-17050 (VRE) = experiment: MIC assay; assay type: cell-based, Enterococcus faecium; conditions: Enterococcus, read-out: MIC E. faec. DSM-17050 (VRE)
Method: as §1, §2, §3, §4, §5, §6

[2] = metabolic stability assay, human microsomes; conditions: second microsome column of Table S4, head prints (M); mouse and human microsomes
E. ae. CIP 106754 = experiment: MIC assay; assay type: cell-based, Enterobacter aerogenes; conditions: Klebsiella aerogenes, CIP106754, read-out: MIC E. ae. CIP 106754
Method: as §1, §2, §3, §4, §5, §6

[3] = Method: 2.1 Materials and Methods […]
Determination of in vitro ADME properties
7, 8, 11 and 42. All samples were analysed via HPLC -MS/MS.
HPLC-MS/MS analysis of cystobactamids
AB Sciex QTrap 6500plus mass spectrometer. LC conditions were as follows: column:
Samples were run under acidic
For plasma stability experiments, samples were procured from commercial sources.
Human plasma was obtained from Antibodies-online (catalog no. ABIN5706569), and mouse plasma was obtained from Tebubio (catalog no. D408-04-0050).
The methods were performed in accordance with relevant guidelines and regulations and approved by the Helmholtz Centre for Infection Research. […]

ESKAPE strains = experiment: MIC-assays on a panel of representative ESKAPE strains, summary in words; assay type: cell-based; conditions: summary of the MIC tables
Method: as §1, §2, §3, §4, §5, §6

[4] = metabolic stability assay, mouse microsomes; conditions: Table S4
[5] = PK study in mice after intravenous administration; assay type: in vivo, CD-1 mice; conditions: male, plasma
Method: and approved by the Helmholtz Centre for Infection Research.
Germany), 4-weeks-old, were used. The animal studies were conducted in accordance […]
Verbraucherschutz und Lebensmittelsicherheit, Oldenburg, Germany.
Then, plasma was transferred into a new Eppendorf tube and stored at -80°C until analysis.
Bioanalysis of pharmacokinetic and pharmacodynamic samples […]
mouse plasma from CD-1 mice. Glipizide was used as an internal standard. In addition, […]
mixer. […] Supernatants were […]
transferred to standard HPLC-glass vials. Samples were analyzed using LC-MS/MS conditions as described above. Peaks of PK samples were quantified using the calibration curve using AB Sciex Multiquant Software 3.0. The accuracy of the calibration curve was determined using QCs independently prepared. PK parameters were determined using a non-compartmental analysis with PKSolver.23
Figure S1: Plasma concentration curves for cystobactamid 42. Error bars were determined via standard deviation of two cassette experiments per compound (n=2). […]
(1 picture or pasted object on this page, not shown here)

C#CC[C@H](NC(=O)c1ccc(NC(=O)c2ccc(C#N)cc2)cc1)C(=O)Nc1ccc(NC(=O)c2ccc(C(=O)Nc3ccc(C(=O)O)cc3)c(O)c2OC(C)C)cc1 [Cmpd. 42]
MIC (A. baum. CIP-107292): 0.05 µg/mL (≈ 0.0631 µM)
MIC (P. ae. PA14): 4 µg/mL (≈ 5.05 µM)
MIC (P. ae. PA14ΔmexAB): < 0.03 µg/mL
MIC (K. pneum. R-1525): < 0.03 µg/mL
MIC (E. coli ATCC-25922): < 0.03 µg/mL
MIC (K. pneum. CIP-104298): < 0.03 µg/mL
MIC (A. baum. DSM-30008): 0.125 µg/mL (≈ 0.158 µM)
MIC (A. baum. ATCC BAA-1710): 0.03 to 0.05 µg/mL (≈ 0.0378 to 0.0631 µM)
MIC (A. baum. R835): 0.5 µg/mL (≈ 0.631 µM)
MIC (E. cloacae ATCC BAA-2468): 0.25 µg/mL (≈ 0.315 µM)
MIC (E. coli LM705): 0.06 µg/mL (≈ 0.0757 µM)
MIC (A. baum. CIP-105742): < 0.03 µg/mL
MIC (S. aur. ATCC-29213): 0.06 µg/mL (≈ 0.0757 µM)
MIC [1]: < 0.03 µg/mL
MIC (K. pneum. KP10581): < 0.03 µg/mL
MIC (E. faec. DSM-17050 (VRE)): < 0.03 µg/mL
T1/2 MICROSOMES (M) [2]: > 1 h
MIC (E. ae. CIP 106754): 1 µg/mL (≈ 1.26 µM)
T1/2 PLASMA (H) ([3]; human plasma): > 4 h
T1/2 PLASMA (M) ([3]; mouse plasma): > 4 h
antibacterial activity on the pathogen panel, in words (ESKAPE strains): exceptional activity
T1/2 MICROSOMES (M) [4]: > 1 h
clearance ([5]; CD-1, mouse, iv, 1 mg/kg): 17.9 ± 12.3 mL/min/kg
C0 ([5]; CD-1, mouse, iv, 1 mg/kg, concentration at t = 0 h, CD-1 mice, 1 mg/kg IV): ~2200 ng/mL
Vd ([5]; CD-1, mouse, iv, 1 mg/kg, volume of distribution, CD-1 mice, 1 mg/kg IV, read-out: Vz): ~1.4 L/kg
AUC(0-t) ([5]; mouse, CD-1 mice, 1 mg/kg IV): 1210 ± 832 ng·h/mL
half-life ([5]; mouse, CD-1 mice, 1 mg/kg IV): 0.88 ± 0.1 h

From publication PMC11538350, “Synthetic studies on the tetrasubstituted D-ring of cystobactamids lead to potent terephthalic acid antibiotics” (Communications Chemistry, 2024)
